Test [1] has as its target T1, BCL-XL (Homo sapiens, UniProt Q07817).
T1 construct: endogenous in cells; host or cells: MOLT-4
Nature of the test: Bcl-xL ELISA degradation in MOLT-4 cells, 6 h. The test is classed as cell-based. The note with it: for DC50: read-out: Bcl-xL ELISA in MOLT-4 degradation 6 h: Mean external-Abs DC50. Here is the method:
The letter codes for BCL-XL DC50 include: A (<0.01 μM); B (0.01-0.1 μM); C (>[…]); D (>0.5-1.0 μM); and E (>1.0 μM). The letter codes for Dmax % include A (>75%); B (50 to 75%); C (<50%).
(An ELISA detects its analyte on a solid surface through an enzyme-linked reagent.)

For test [2], the target named is T1, BCL-XL. Nature of the test: BCL-XL degradation assay, western blot in MOLT-4 cells, 16 h. The note with it: western blot, MOLT-4 cells, 16 h; for Dmax: read-out: Bcl-xL WB in MOLT-4 degradation 16 h: Average Dmax %; for DC50: read-out: Bcl-xL WB in MOLT-4 degradation 16 h: Mean external-Abs DC50. The format is cell-based. In outline:
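MOLT-4 cells treated with compounds at 0.02-10 μM final for 16 hr at 37° C; lysates analysed by western blot with anti-BCL-xL, beta-actin and GAPDH loading controls, infrared imaging and densitometry; DC50 and Dmax % reported as letter codes.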
On the technique in general: A western blot detects proteins with antibodies after separation by electrophoresis.

Where only a bound is given, the exact number is not on record here.

What is called Dmax is the greatest extent of degradation seen. As usually defined, the DC50 is the concentration at which degradation of the target reaches its halfway point.

T1 sequence (Q07817 whole entry): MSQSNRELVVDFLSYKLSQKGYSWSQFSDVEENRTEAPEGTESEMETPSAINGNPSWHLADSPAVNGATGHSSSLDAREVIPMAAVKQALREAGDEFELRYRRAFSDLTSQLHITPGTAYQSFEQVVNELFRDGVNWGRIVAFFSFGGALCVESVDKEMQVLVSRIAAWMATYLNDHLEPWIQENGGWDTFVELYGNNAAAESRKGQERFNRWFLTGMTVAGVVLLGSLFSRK

For `C#Cc1ccc([C@H](CO)NC(=O)[C@@H]2C[C@@H](O)CN2C(=O)[C@@H](NC(=O)C2CCN(c3ccc(S(=O)(=O)NC(=O)c4nc(N5CCc6cccc(C(=O)Nc7nc8ccccc8s7)c6C5)ccc4-c4cnn(CC5CCCCC5)c4C)cc3)CC2)C(C)(C)C)cc1` [I-242], in test [1], the Dmax was more than 75% and the DC50 was in the range of 10 to 100 nM. In test [2], the Dmax is more than 75% and the half-maximal degradation concentration (DC50) was less than 10 nM.
Consider `Cc1ncsc1-c1ccc([C@H](C)NC(=O)[C@@H]2C[C@@H](O)CN2C(=O)[C@@H](NC(=O)N2CC3(CC(N4CCN(C(=O)c5nc(N6CCc7cccc(C(=O)Nc8nc9ccccc9s8)c7C6)ccc5-c5cnn(CC6CCCCC6)c5C)CC4)C3)C2)C(C)(C)C)cc1` [I-248], for which the Dmax in test [1] was less than 50%; in test [2], 50 to 75%. For the same compound, the DC50 in test [1] was more than 1000 nM; in test [2], 10 to 100 nM.
`Cc1ncsc1-c1ccc([C@H](C)NC(=O)[C@@H]2C[C@@H](O)CN2C(=O)C(c2cc(OC3CC4(C3)CN(C(=O)c3nc(N5CCc6cccc(C(=O)Nc7nc8ccccc8s7)c6C5)ccc3-c3cnn(CC5CCCCC5)c3C)C4)no2)C(C)C)cc1` (stereo partly shown) [I-237]: the maximal degradation (Dmax) was 50 to 75% in test [1] and more than 75% in test [2]. Besides, the DC50 in test [1] was 100 to 500 nM; in test [2], less than 10 nM.
Taken in the same sequence, the figures for `Cc1cc(N(C)c2ccc(-c3cnn(CC45CC6CC(CC(C6)C4)C5)c3C)c(C(=O)NS(=O)(=O)c3ccc(N4CCC(C(=O)N[C@H](C(=O)N5C[C@H](O)C[C@H]5C(=O)N[C@@H](C)c5ccc(-c6scnc6C)cc5)C(C)(C)C)CC4)cc3)n2)nnc1Nc1nc2ccccc2s1` [I-246] were more than 75%, more than 75%, 10 to 100 nM and less than 10 nM.
For `Cc1ncsc1-c1ccc([C@H](C)NC(=O)[C@@H]2C[C@@H](O)CN2C(=O)[C@@H](c2cc(N3CC(N4CCC(NC(=O)c5nc(N6CCc7cccc(C(=O)Nc8nc9ccccc9s8)c7C6)ccc5-c5cnn(CC6CCCCC6)c5C)CC4)C3)no2)C(C)C)cc1` [I-236], in that order: 50 to 75%, more than 75%, 100 to 500 nM and less than 10 nM.
For `Cc1ncsc1-c1ccc([C@H](C)NC(=O)[C@@H]2C[C@@H](O)CN2C(=O)C(c2cc(OC3CN(c4ccc(S(=O)(=O)NC(=O)c5nc(N6CCc7cccc(C(=O)Nc8nc9ccccc9s8)c7C6)ccc5-c5cnn(CC6CCCCC6)c5C)cc4)C3)no2)C(C)C)cc1` (stereo partly shown) [I-230], in that order: more than 75%, more than 75%, 10 to 100 nM and less than 10 nM.
With `Cc1ncsc1-c1ccc([C@H](C)NC(=O)[C@@H]2C[C@@H](O)CN2C(=O)[C@@H](NC(=O)N2CCC(CN3CCN(CC#Cc4ccc(OCCCc5sc(N6CCc7cccc(C(=O)Nc8nc9ccccc9s8)c7C6)nc5C(=O)O)c(F)c4)CC3)CC2)C(C)(C)C)cc1` [I-72], in test [1], the Dmax is less than 50% and the DC50 was in the range of 10 to 100 nM. The greatest degradation seen (Dmax) in test [2] was less than 50%.
`Cc1cc(N2CCC(C(=O)N[C@H](C(=O)N3C[C@H](O)C[C@H]3C(=O)N[C@@H](C)c3ccc(-c4scnc4C)cc3)C(C)(C)C)CC2)ccc1S(=O)(=O)NC(=O)c1nc(N2CCc3cccc(C(=O)Nc4nc5ccccc5s4)c3C2)ccc1-c1cnn(CC2CCCCC2)c1C` [I-275]: in test [1], the Dmax is more than 75% and the DC50 fell in the range of 10 to 100 nM. In addition, in test [2], the Dmax was more than 75% and the DC50 was less than 10 nM.
Turning to `Cc1ncsc1-c1ccc([C@H](C)NC(=O)[C@@H]2C[C@@H](O)CN2C(=O)C(c2cc(OC3CCN(CCNC(=O)c4nc(N5CCc6cccc(C(=O)Nc7nc8ccccc8s7)c6C5)ccc4-c4cnn(CC5CCCCC5)c4C)CC3)no2)C(C)C)cc1` (stereo partly shown) [I-234], the Dmax in test [1] is less than 50%; in test [2] it was 50 to 75%. The DC50 in test [1] is more than 1000 nM; in test [2], 10 to 100 nM.
For `Cc1ncsc1-c1ccc(CNC(=O)[C@@H]2C[C@@H](O)CN2C(=O)[C@@H](NC(=O)C2(F)CC2)C(C)(C)C)c(OCC2CCN(CC[C@H](CSc3ccccc3)Nc3ccc(S(=O)(=O)NC(=O)c4ccc(N5CCN(CC6=C(c7ccc(Cl)cc7)CCC(C)(C)C6)CC5)cc4)cc3S(=O)(=O)C(F)(F)F)CC2)c1` [I-249], in that order: less than 50%, more than 75%, more than 1000 nM and less than 10 nM.
As to `CC1(C)CCC(c2ccc(Cl)cc2)=C(CN2CCN(c3ccc(C(=O)NS(=O)(=O)c4ccc(N[C@H](CCN5CCN(C(=O)COc6cc(F)ccc6CNC(=O)[C@@H]6C[C@@H](O)CN6C(=O)[C@@H](NC(=O)C6(F)CC6)C(C)(C)C)CC5)CSc5ccccc5)c(S(=O)(=O)C(F)(F)F)c4)cc3)CC2)C1` [I-98], in test [2], the Dmax is less than 50% and the half-maximal degradation concentration (DC50) is more than 1000 nM.
Regarding `Cc1ncsc1-c1ccc([C@H](C)NC(=O)[C@@H]2C[C@@H](O)CN2C(=O)[C@@H](NC(=O)CCCCCC(=O)N2CCN(CC[C@@H](CSc3ccccc3)Nc3ccc(S(=O)(=O)NC(=O)c4ccc(N5CCC(C)(C)CC5)cc4)cc3S(=O)(=O)C(F)(F)F)CC2)C(C)(C)C)cc1` [I-393], in test [2], the maximal degradation (Dmax) was less than 50% and the DC50 is more than 1000 nM.
Taken in the same sequence, the figures for `Cc1ncsc1-c1ccc([C@H](C)NC(=O)[C@@H]2C[C@@H](O)CN2C(=O)[C@@H](NC(=O)CCCCCC(=O)N(C)CCCc2cccc(F)c2OCCCc2sc(N3CCc4cccc(C(=O)Nc5nc6ccccc6s5)c4C3)nc2C(=O)O)C(C)(C)C)cc1` [I-10] were more than 75% and 100 to 500 nM.
Consider `Cc1ncsc1-c1ccc(CNC(=O)[C@@H]2C[C@@H](O)CN2C(=O)C(c2cc(OCCCC(=O)N3CCN(CC[C@H](CSc4ccccc4)Nc4ccc(S(=O)(=O)NC(=O)c5ccc(N6CCN(CC7=C(c8ccc(Cl)cc8)CCC(C)(C)C7)CC6)cc5)cc4S(=O)(=O)C(F)(F)F)CC3)no2)C(C)C)cc1` (stereo partly shown) [I-38], for which, in test [2], the Dmax is 50 to 75% and the 50% degradation concentration (DC50) was in the range of 100 to 500 nM.
Consider `Cc1ncsc1-c1ccc(CNC(=O)[C@@H]2C[C@@H](O)CN2C(=O)[C@@H](NC(=O)C2(F)CC2)C(C)(C)C)c(OCCCC(=O)N(C)CC#Cc2ccc(OCCCc3sc(N4CCc5cccc(C(=O)Nc6nc7ccccc7s6)c5C4)nc3C(=O)O)c(F)c2)c1` [I-6], for which, in test [2], the Dmax is more than 75% and the DC50 lay within 100 to 500 nM.
For the compound `Cc1ncsc1-c1ccc(CNC(=O)[C@@H]2C[C@@H](O)CN2C(=O)[C@@H](NC(=O)C2(F)CC2)C(C)(C)C)c(O[C@H]2CC[C@@H](N3CCN(CC[C@H](CSc4ccccc4)Nc4ccc(S(=O)(=O)NC(=O)c5ccc(N6CCN(CC7=C(c8ccc(Cl)cc8)CCC(C)(C)C7)CC6)cc5)cc4S(=O)(=O)C(F)(F)F)CC3)CC2)c1` (single isomer, unassigned) [I-115], in test [2], the maximal degradation (Dmax) was less than 50% and the DC50 is more than 1000 nM.
Turning to `Cc1ncsc1-c1ccc(CNC(=O)[C@@H]2C[C@@H](O)CN2C(=O)[C@@H](NC(=O)C2(F)CC2)C(C)(C)C)c(O[C@H]2CC[C@H](C(=O)N3CCN(CC[C@H](CSc4ccccc4)Nc4ccc(S(=O)(=O)NC(=O)c5ccc(N6CCN(CC7=C(c8ccc(Cl)cc8)CCC(C)(C)C7)CC6)cc5)cc4S(=O)(=O)C(F)(F)F)CC3)CC2)c1` [I-89], in test [2], the Dmax is less than 50% and the DC50 is more than 1000 nM.
Taken in the same sequence, the figures for `Cc1ncsc1-c1ccc([C@H](C)NC(=O)[C@@H]2C[C@@H](O)CN2C(=O)[C@@H](NC(=O)CCCC(=O)N(C)CCN(C)c2cc3c(c(C(=O)Nc4nc5ccccc5s4)c2)CN(c2ccc(-c4cnn(CC5CCCCC5)c4C)c(C(=O)O)n2)CC3)C(C)(C)C)cc1` [I-110] were less than 50% and more than 1000 nM.
As for `Cc1cc(N(CCN(C)C(=O)CCCC(=O)N[C@H](C(=O)N2C[C@H](O)C[C@H]2C(=O)N[C@@H](C)c2ccc(-c3scnc3C)cc2)C(C)(C)C)c2ccc(-c3cnn(CC4CCCCC4)c3C)c(C(=O)O)n2)nnc1Nc1nc2ccccc2s1` [I-99], in test [2], the Dmax fell in the range of 50 to 75% and the DC50 is more than 1000 nM.
For `Cc1ncsc1-c1ccc([C@H](C)NC(=O)[C@@H]2C[C@@H](O)CN2C(=O)[C@@H](NC(=O)CCCCCS(=O)(=O)NC(=O)c2cccc(N3CCc4cccc(C(=O)Nc5nc6ccccc6s5)c4C3)n2)C(C)(C)C)cc1` [I-119], in that order: less than 50% and more than 1000 nM.
For `Cc1ncsc1-c1ccc([C@H](C)NC(=O)[C@@H]2C[C@@H](O)CN2C(=O)[C@@H](NC(=O)CCCNC(=O)CCC2(Cn3ncc(-c4ccc(N5CCc6cccc(C(=O)Nc7nc8ccccc8s7)c6C5)nc4C(=O)O)c3C)CCCCC2)C(C)(C)C)cc1` [I-129], in that order: more than 75% and 100 to 500 nM.
Regarding `Cc1cc(N(CCN(C)C(=O)CCCCCCCCC(=O)N[C@H](C(=O)N2C[C@H](O)C[C@H]2C(=O)N[C@@H](C)c2ccc(-c3scnc3C)cc2)C(C)(C)C)c2ccc(-c3cnn(CC4CCCCC4)c3C)c(C(=O)O)n2)nnc1Nc1nc2ccccc2s1` [I-101], in test [2], the Dmax is less than 50% and the DC50 was more than 1000 nM.
Taken in the same sequence, the figures for `Cc1ncsc1-c1ccc([C@H](C)NC(=O)[C@@H]2C[C@@H](O)CN2C(=O)[C@@H](NC(=O)CCCCCC(=O)N2CCN(CCCC3(Cn4ncc(-c5ccc(N6CCc7cccc(C(=O)Nc8nc9ccccc9s8)c7C6)nc5C(=O)O)c4C)CCCCC3)CC2)C(C)(C)C)cc1` [I-131] were 50 to 75% and 100 to 500 nM.
For `C#Cc1ccc(CNC(=O)[C@@H]2C[C@@H](O)CN2C(=O)[C@@H](NC(=O)C2(F)CC2)C(C)(C)C)c(OCC(=O)N2CCN(CC[C@H](CSc3ccccc3)Nc3ccc(S(=O)(=O)NC(=O)c4ccc(N5CCN(CC6=C(c7ccc(Cl)cc7)CCC(C)(C)C6)CC5)cc4)cc3S(=O)(=O)C(F)(F)F)CC2)c1` [I-92], in that order: more than 75% and 100 to 500 nM.
